Experimental data as given in ChEMBL document CHEMBL1121787, “Some 14 beta-substituted analogues of N-(cyclopropylmethyl)normorphine” (J Med Chem, 1981).
“And” between values parts separate entries of the source, which are not always exact repeats. Equal values may be shown once. The source made the active and inactive calls. The calls are words filed in the database; no cut-off is given here.

Tests used:
Cavia porcellus = species on record: Cavia porcellus; assay: Opioid agonistic activity was measured in guinea pig ileum; format: functional
Mus musculus [1] = species on record: Mus musculus; assay: Opioid agonistic activity was measured in mouse vas deferens; format: functional
Mus musculus [2] = species on record: Mus musculus; assay: Opioid agonistic activity was measured in mouse vas deferens.; format: functional
Mus musculus [3] = species on record: Mus musculus; assay: Opioid antagonist activity of compound was measured as inhibiting the binding of normorphine to mouse vas deferens; format: functional
[4] = system: Opioid receptors; mu & kappa; conditions: Cavia porcellus; Ileum
Mus musculus [5] = species on record: Mus musculus

`O=C1C=C[C@@]2([N+](=O)[O-])C3Cc4ccc(O)c5c4C2(CCN3CC2CC2)[C@H]1O5` (some centres undefined) was tested, and the IC50 (Cavia porcellus) was 41.2 nM, the IC50 (Mus musculus [1]) was 330 nM and the IC50 (Mus musculus [2]) was 580 nM. The Ke (Mus musculus [3]) was 14.9 nM and the Ke [4] was 4.44 nM.

`O=C1C=C[C@@]2(Cl)C3Cc4ccc(O)c5c4C2(CCN3CC2CC2)[C@H]1O5` (some centres undefined) gave a Ke (Mus musculus [3]) of 16.6 nM and a Ke [4] of 3.92 nM.

`Oc1ccc2c3c1O[C@H]1[C@@H](O)C=C[C@@]4(O)C(C2)N(CC2CC2)CCC314` (some centres undefined) was tested, and the Ke (Mus musculus [3]) was 10.5 nM and 9 nM and the Ke [4] was 2.35 nM.

For `CN1CC[C@]23c4c5ccc(O)c4O[C@H]2[C@@H](O)C=C[C@H]3[C@H]1C5`, the Ke (Mus musculus [5]) was “inactive”.

In the case of `Oc1ccc2c3c1O[C@H]1[C@@H](O)C=C[C@H]4C(C2)N(CC2CC2)CCC341` (some centres undefined), the IC50 (Cavia porcellus) is reported as 2.16 nM and the Ke [4] is reported as 0.8 nM.

Molecule `O=C1CC[C@@]2(O)[C@H]3Cc4ccc(O)c5c4[C@@]2(CCN3CC2CC2)[C@H]1O5` [NALTREXONE] has an Inhibition (Cavia porcellus) of 25%.

For `C=CCN1CC[C@]23c4c5ccc(O)c4O[C@H]2[C@@H](O)C=C[C@H]3[C@H]1C5` [NALORPHINE], the IC50 (Cavia porcellus) was 24.3 nM, the IC50 (Mus musculus [1]) was 535 nM and the Ke (Mus musculus [3]) was 28.7 nM. The Ke [4] was 4.47 nM.

In the case of `C=CCN1CC[C@]23c4c5ccc(O)c4O[C@H]2C(=O)CC[C@@]3(O)[C@H]1C5` [NALOXONE], the Ke (Mus musculus [3]) is reported as 3.66 nM.

`Oc1ccc2c3c1O[C@H]1[C@@H](O)C=C[C@@]4(S)C(C2)N(CC2CC2)CCC314` (some centres undefined) was tested, and the IC50 (Cavia porcellus) was 39.1 nM, the IC50 (Mus musculus [1]) was 218 nM and the Ke (Mus musculus [3]) was 22.9 nM and 20 nM. For the same molecule, the Ke [4] was 1.69 nM.

`O=C1C=C[C@@]2(Br)C3Cc4ccc(O)c5c4C2(CCN3CC2CC2)[C@H]1O5` (some centres undefined) was tested, and the Ke (Mus musculus [3]) was 2.35 nM and 2.83 nM and the Ke [4] was 1.36 nM.
